# Data: patent publication US10323035B2, “Co-crystal of a CDK inhibitor and an MEK inhibitor and process of preparation thereof” (CRYSTAL PHARMATECH CO., LTD, priority 2015, dated 2019)
# Assay: Pharmacokinetics in rats after oral administration
# Format: in vivo
# Conditions: male, SD, blood
# Protocol: Investigations on the pharmacokinetic characteristics of MEK162 free base single compound (group A), equimolar physical mixture of MEK162 and LEE011 succinate (group B) and co-crystal Form I of MEK162-LEE011 (group C) in the rats were conducted. Male SD rats with standard weight were chosen as experimental objects, three rats in a group and were orally administrated. The dosage in group A was 5 mg·kg^−1 (calculated as free base), the dosages of two components in group B were both 5 mg·kg^−1 (calculated as free base), the dosage in group C was 10 mg·kg^−1 (calculated as co-crystal anhydrate form), and dosage of these two components was around 5 mg·kg^−1 (calculated as free base) as calculated by molecular weight.
smiles,measurement,setting,value
"Cn1cnc2c(F)c(Nc3ccc(Br)cc3F)c(C(=O)NOCCO)cc21 [MEK162, 5-[(4-bromo-2-fluorophenyl)amino]-4-fluoro-N-(2-hydroxyethoxy)-1-methyl-1H-benzimidazol-6-carboxamide]",Tmax,"5 mg·kg^−1, rat, read-out: time to reach maximum concentration (Tmax)",15 min
same,AUC(0-inf),"rat, about 5 mg·kg^−1 of each component as free base, read-out: AUC0-inf of MEK162",11300 ± 895 ng·h/mL
same,Cmax,"rat, about 5 mg·kg^−1 of each component as free base, read-out: maximum concentration of blood drug (Cmax) of MEK162",3240 ± 576 ng/mL
